Measurements taken from ChEMBL document CHEMBL3603774, “Novel 5-functionalized-pyrazoles: Synthesis, characterization and pharmacological screening” (Bioorg Med Chem Lett, 2015).
≈ marks a conversion by molar mass, not a printed value.

Key:
[1] = test system: Bacillus cereus; test: Antibacterial activity against Bacillus cereus MTCC 8372 at 50 ug/ml after 24 hrs by disc diffusion method; type: functional; details: MTCC 8372, 24 h, read-out: IZ
[2] = test system: Bacillus cereus; test: Antibacterial activity against Bacillus cereus MTCC 8372 at 100 ug/ml after 24 hrs by disc diffusion method; type: functional; details: MTCC 8372, 24 h, read-out: IZ
[3] = test system: Staphylococcus aureus; test: Antibacterial activity against Staphylococcus aureus MTCC 96 at 50 ug/ml after 24 hrs by disc diffusion method; type: functional; details: MTCC 96, 24 h, read-out: IZ
[4] = test system: Staphylococcus aureus; test: Antibacterial activity against Staphylococcus aureus MTCC 96 at 100 ug/ml after 24 hrs by disc diffusion method; type: functional; details: MTCC 96, 24 h, read-out: IZ
[5] = test system: Escherichia coli; test: Antibacterial activity against Escherichia coli MTCC 724 at 50 ug/ml after 24 hrs by disc diffusion method; type: functional; details: MTCC 724, 24 h, read-out: IZ
[6] = test system: Escherichia coli; test: Antibacterial activity against Escherichia coli MTCC 724 at 100 ug/ml after 24 hrs by disc diffusion method; type: functional; details: MTCC 724, 24 h, read-out: IZ
[7] = test system: Klebsiella pneumoniae; test: Antibacterial activity against Klebsiella pneumoniae MTCC 3384 at 50 ug/ml after 24 hrs by disc diffusion method; type: functional; details: MTCC 3384, 24 h, read-out: IZ
[8] = test system: Klebsiella pneumoniae; test: Antibacterial activity against Klebsiella pneumoniae MTCC 3384 at 100 ug/ml after 24 hrs by disc diffusion method; type: functional; details: MTCC 3384, 24 h, read-out: IZ
[9] = test system: Aspergillus flavus; test: Antifungal activity against Aspergillus flavus MTCC 873 at 50 ug/ml after 24 hrs by disc diffusion method; type: functional; details: MTCC 873, 24 h, read-out: IZ
[10] = test system: Aspergillus flavus; test: Antifungal activity against Aspergillus flavus MTCC 873 at 100 ug/ml after 24 hrs by disc diffusion method; type: functional; details: MTCC 873, 24 h, read-out: IZ
[11] = test system: Aspergillus niger; test: Antifungal activity against Aspergillus niger MTCC 281 at 50 ug/ml after 24 hrs by disc diffusion method; type: functional; details: MTCC 281, 24 h, read-out: IZ
[12] = test system: Bacillus cereus; test: Antibacterial activity against Bacillus cereus MTCC 8372 after 24 hrs by microdilution method; type: functional; details: MTCC 8372, 24 h
[13] = test system: Bacillus cereus; test: Antibacterial activity against Bacillus cereus MTCC 8372 assessed as concentration required to completely destroy test microorganisms after 24 hrs; type: functional; details: MTCC 8372, 24 h
[14] = test system: Staphylococcus aureus; test: Antibacterial activity against Staphylococcus aureus MTCC 96 after 24 hrs by microdilution method; type: functional; details: MTCC 96, 24 h
[15] = test system: Staphylococcus aureus; test: Antibacterial activity against Staphylococcus aureus MTCC 96 assessed as concentration required to completely destroy test microorganisms after 24 hrs; type: functional; details: MTCC 96, 24 h
[16] = test system: Escherichia coli; test: Antibacterial activity against Escherichia coli MTCC 724 after 24 hrs by microdilution method; type: functional; details: MTCC 724, 24 h
[17] = test system: Escherichia coli; test: Antibacterial activity against Escherichia coli MTCC 724 assessed as concentration required to completely destroy test microorganisms after 24 hrs; type: functional; details: MTCC 724, 24 h
[18] = test system: Klebsiella pneumoniae; test: Antibacterial activity against Klebsiella pneumoniae MTCC 3384 after 24 hrs by microdilution method; type: functional; details: MTCC 3384, 24 h
[19] = test system: Klebsiella pneumoniae; test: Antibacterial activity against Klebsiella pneumoniae MTCC 3384 assessed as concentration required to completely destroy test microorganisms after 24 hrs; type: functional; details: MTCC 3384, 24 h
[20] = test system: Aspergillus flavus; test: Antifungal activity against Aspergillus flavus MTCC 873 after 48 hrs by microdilution method; type: functional; details: MTCC 873, 48 h
[21] = test system: Aspergillus flavus; test: Antifungal activity against Aspergillus flavus MTCC 873 assessed as concentration required to completely destroy test microorganisms after 24 hrs; type: functional; details: MTCC 873, 24 h
[22] = test system: Aspergillus niger; test: Antifungal activity against Aspergillus niger MTCC 281 after 48 hrs by microdilution method; type: functional; details: MTCC 281, 48 h
[23] = test system: Aspergillus niger; test: Antifungal activity against Aspergillus niger MTCC 281 assessed as concentration required to completely destroy test microorganisms after 24 hrs; type: functional; details: MTCC 281, 24 h
[24] = test system: Aspergillus niger; test: Antifungal activity against Aspergillus niger MTCC 281 at 100 ug/ml after 24 hrs by disc diffusion method; type: functional; details: MTCC 281, 24 h, read-out: IZ
[25] = molecular target: T1, Alpha amylase (Homo sapiens, UniProt P0DUB6); test: Inhibition of alpha-amylase (unknown origin) using starch as substrate after 30 mins by spectrophotometer analysis
T1 sequence (P0DUB6 whole entry): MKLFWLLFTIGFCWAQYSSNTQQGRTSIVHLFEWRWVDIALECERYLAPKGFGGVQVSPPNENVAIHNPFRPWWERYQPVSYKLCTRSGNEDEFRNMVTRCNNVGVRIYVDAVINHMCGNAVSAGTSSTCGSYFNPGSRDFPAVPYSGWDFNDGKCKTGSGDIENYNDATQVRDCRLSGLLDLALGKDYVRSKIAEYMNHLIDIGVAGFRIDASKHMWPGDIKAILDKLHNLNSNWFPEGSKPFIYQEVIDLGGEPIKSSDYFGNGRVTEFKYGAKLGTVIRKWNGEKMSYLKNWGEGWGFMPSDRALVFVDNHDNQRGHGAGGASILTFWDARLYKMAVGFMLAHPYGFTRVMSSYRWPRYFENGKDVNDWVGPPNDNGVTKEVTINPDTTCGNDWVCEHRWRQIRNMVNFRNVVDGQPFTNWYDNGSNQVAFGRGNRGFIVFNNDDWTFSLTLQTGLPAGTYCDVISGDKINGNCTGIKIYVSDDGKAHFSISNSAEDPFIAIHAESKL

[26] = Inhibition of alpha-glucosidase (unknown origin) using p-nitrophenol glycoside as substrate after 30 mins by colorimetric analysis; parameters: species or system Homo sapiens

Row | MIC [12] [µg/mL] | MIC [14] [µg/mL] | MIC [16] [µg/mL] | MIC [18] [µg/mL] | MIC [20] [µg/mL] | Structure (SMILES) | zone of inhibition at 50 µg/mL [1] [mm] | zone of inhibition at 100 µg/mL [2] [mm] | zone of inhibition at 50 µg/mL [3] [mm] | zone of inhibition at 100 µg/mL [4] [mm] | zone of inhibition at 50 µg/mL [5] [mm] | zone of inhibition at 100 µg/mL [6] [mm] | zone of inhibition at 50 µg/mL [7] [mm] | zone of inhibition at 100 µg/mL [8] [mm] | zone of inhibition at 50 µg/mL [9] [mm] | zone of inhibition at 100 µg/mL [10] [mm] | zone of inhibition at 50 µg/mL [11] [mm] | MBC [13] [µg/mL] | MBC [15] [µg/mL] | MBC [17] [µg/mL] | MBC [19] [µg/mL] | further results
1 | 20 (≈ 44 µM) | 20 (≈ 44 µM) | 25 (≈ 55 µM) | 25 (≈ 55 µM) | 50 (≈ 110 µM) | CCOC(=O)c1c(-c2ccccc2)nn(-c2ccccc2)c1Cn1c(S)nc2ccccc21 | 8 | 11 | 8 | 12 | 8 | 16 | 8 | 14 | 14 | 18 | 10 | 160 (≈ 352 µM) | 150 (≈ 330 µM) | 175 (≈ 385 µM) | 160 (≈ 352 µM) | MFC [21]: 290 µg/mL (≈ 638 µM); MIC [22]: 40 µg/mL (≈ 88 µM); MFC [23]: 290 µg/mL (≈ 638 µM); zone of inhibition at 100 µg/mL [24]: 16 mm; IC50 [25]: 40 µg/mL (≈ 88 µM); IC50 [26]: 45 µg/mL (≈ 99 µM)
2 | 40 (≈ 93.8 µM) | 40 (≈ 93.8 µM) | 55 (≈ 129 µM) | 55 (≈ 129 µM) | 40 (≈ 93.8 µM) | CCOC(=O)c1c(-c2ccccc2)nn(-c2ccccc2)c1COc1ccc(C=O)cc1 | 3 | 3 | 2 | 8 | 10 | 16 | 8 | 12 | 20 | 5 | 12 | 210 (≈ 492 µM) | 210 (≈ 492 µM) | 235 (≈ 551 µM) | 230 (≈ 539 µM) | MFC [21]: 275 µg/mL (≈ 645 µM); MIC [22]: 45 µg/mL (≈ 106 µM); MFC [23]: 260 µg/mL (≈ 610 µM); zone of inhibition at 100 µg/mL [24]: 10 mm; IC50 [25]: 60 µg/mL (≈ 141 µM); IC50 [26]: 65 µg/mL (≈ 152 µM)
3 | 45 (≈ 98.6 µM) | 45 (≈ 98.6 µM) | 40 (≈ 87.6 µM) | 45 (≈ 98.6 µM) | 40 (≈ 87.6 µM) | CCOC(=O)c1c(-c2ccccc2)nn(-c2ccccc2)c1COc1ccc(C=O)cc1OC | 4 | 8 | 2 | 8 | 3 | 8 | 4 | 6 | 8 | 9 | 12 | 230 (≈ 504 µM) | 240 (≈ 526 µM) | 210 (≈ 460 µM) | 200 (≈ 438 µM) | MFC [21]: 250 µg/mL (≈ 548 µM); MIC [22]: 40 µg/mL (≈ 87.6 µM); MFC [23]: 205 µg/mL (≈ 449 µM); zone of inhibition at 100 µg/mL [24]: 10 mm; IC50 [25]: 60 µg/mL (≈ 131 µM); IC50 [26]: 70 µg/mL (≈ 153 µM)
4 | 45 (≈ 106 µM) | 55 (≈ 129 µM) | 65 (≈ 152 µM) | 85 (≈ 199 µM) | 50 (≈ 117 µM) | CCOC(=O)c1c(-c2ccccc2)nn(-c2ccccc2)c1COc1ccccc1C=O | 4 | 16 | 2 | 12 | 3 | 8 | 6 | 9 | 10 | 5 | 10 | 250 (≈ 586 µM) | 220 (≈ 516 µM) | 250 (≈ 586 µM) | 260 (≈ 610 µM) | MFC [21]: 270 µg/mL (≈ 633 µM); MIC [22]: 50 µg/mL (≈ 117 µM); MFC [23]: 225 µg/mL (≈ 528 µM); zone of inhibition at 100 µg/mL [24]: 10 mm; IC50 [25]: 40 µg/mL (≈ 93.8 µM); IC50 [26]: 40 µg/mL (≈ 93.8 µM)
